In data set [1] the test system is lysosomes of Hsp70-MEFs. Kind of data set: Live single-cell imaging of loss of lysosomal integrity (photo-oxidation) in Hsp70-MEFs. The note with it: subtoxic desipramine 12.5 and 25 μM, 3 h. The data set is classed as cell-based, murine.
Experimental: Assays for lysosomal integrity. Sub-confluent cells incubated with 2 μg/ml acridine orange for 15 min at 37° C. were washed, irradiated and analyzed in Hanks balanced salt solution complemented with 3% fetal calf serum. Cells for single cell imaging were selected from 8 pre-defined areas of each well in transmitted light-mode after which the same cells were immediately visualized and exposed to blue light from USH102 100 W mercury arc burner (Ushio electric) installed in a U-ULS100HG housing (Olympus) for 20 sec. Fluorescence microscopy was performed on Olympus IX-70 inverted microscope with a […] 1×20 objective with NA=0.40. Loss of lysosomal pH gradient was quantified by counting the loss of intense red staining. A more elaborate method for assaying lysosomal integrity was developed to handle the larger lysosomal compartment of the various fibroblasts used in this study. Cells for single cell imaging were selected from 8 pre-defined areas of each well in transmitted light-mode after which the same cells were immediately and continuously exposed to 489 nm light from a 100 mW diode laser while laser scanning micrographs where captured every 330 ms on a Zeiss LSM LIVE DUO confocal system in two channels defined by bandpass filters for 495-555 nm (green) and LP650 nm (Red) light. The resulting timelapse movies where subsequently analysed by the integrated Zeiss LSM DUO software.
Data set [2] has as its system lysosomes of WT and Hsp70 iMEFs. Kind of data set: Cytosolic cathepsin activity (zFRase) in MEFs. The data set is classed as cell-based, murine. The note with it: 3 h.
Experimental: Cells were treated with cisplatin as indicated, cytosolic fractions were obtained by digitonin treatment and cytosolic cysteine cathepsin (zFRase) and caspase-3-like (DEVDase) activities were determined. […] The total and cytoplasmic (digitonin-extracted) cathepsin activities were measured in digitonin-treated samples using zFR-AFC (Enzyme System Products) probe as described in the art.
Data set [3] concerns WT and Hsp70 iMEFs. Kind of data set: Viability of MEFs (MTT reduction). Format: cell-based. To be noted: 3 h. The protocol: The viability of cells was analyzed by the 3-(4,5-dimethylthiazole-2-yl)-2,5-diphenyltetrazolium bromide (MTT) reduction assay as described previously^67.
Assays for cell viability. Cell density was assessed by the 3-(4,5-dimethylthiazole-2-y)-2,5-[…] (MTT, SIGMA-Aldrich) reduction assay essentially as described in the art. Apoptosis-like cell death was assessed by staining the cells with 0.05 μg/ml Hoechst 33342 (Molecular Probes) and counting cells with condensed nuclei in an inverted Olympus IX-70 fluorescent Microscope (Filter U-MWU 330-385 nm). For each experiment a minimum of eight randomly chosen areas were counted.
In general terms: Tetrazolium dyes change colour on reduction, which living cells bring about.

Data set [4] deals with acid sphingomyelinase (ASM), endogenous mutated and loaded rASM. Nature of the data set: ASM activity of NPDA fibroblasts. The data set is classed as cell-based, human. The note with it: 300 nM rHsp70 48 h, or 150 nM rASM alone or with 300 nM rHsp70 24 h. From the text:
WT- and Hsp70-MEFs were generated, immortalized and maintained as described in the art. Human NPDA fibroblasts (83/24) originate from a skin biopsy of a patient with hepatosplenomegaly. Recombinant proteins were generated using the pET-16b vector system and Ni^2+-affinity-purification (Novagen), and labeled with Alexa Fluor 488 according to manufacturers protocol (Molecular Probes). To analyze the lysosomal integrity, we developed a real time imaging method of cells stained with acridine orange, a metachromatic weak base that accumulates in the acidic compartment of the cells staining them red and sensitizing them to photo-oxidation. The photo-oxidation-induced loss of the lysosomal pH-gradient and leakage of acridine orange to the cytosol from individual lysosomes was quantified visually as “loss of red dots” in U2-O—S cells and as a decrease in red and an increase in green fluorescence by Zeiss LSM DUO Software in fibroblasts. The total and cytoplasmic (digitonin-extracted) cathepsin activities were measured in digitonin-treated samples using zFR-AFC (Enzyme System Products) probe as described in the art. The tryptophan fluorescence spectra and liposome 900 light scattering were analyzed in a HEPES buffer (20 mM HEPES, 0.1 mM EDTA, pH as indicated) essentially as described in the art. […]

Data set [5] relates to lysosomes of NPDA patient fibroblasts. Kind of data set: Lysosomal stability of NPDA fibroblasts (photo-oxidation, live single-cell imaging). The data set is classed as cell-based, human. To be noted: NPDA fibroblasts, 24 h, 300 nM rHsp70, 150 nM rASM or combination. The protocol:
Assays for lysosomal integrity. Sub-confluent cells incubated with 2 μg/ml acridine orange for 15 min at 37° C. were washed, irradiated and analyzed in Hanks balanced salt solution complemented with 3% fetal calf serum. Cells for single cell imaging were selected from 8 pre-defined areas of each well in transmitted light-mode after which the same cells were immediately visualized and exposed to blue light from USH102 100 W mercury arc burner (Ushio electric) installed in a U-ULS100HG housing (Olympus) for 20 sec. Fluorescence microscopy was performed on Olympus IX-70 inverted microscope with a LCPlanF1×20 objective with NA=0.40. Loss of lysosomal pH gradient was quantified by counting the loss of intense red staining. A more elaborate method for assaying lysosomal integrity was developed to handle the larger lysosomal compartment of the various fibroblasts used in this study. Cells for single cell imaging were selected from 8 pre-defined areas of each well in transmitted light-mode after which the same cells were immediately and continuously exposed to 489 nm light from a 100 mW diode laser while laser scanning micrographs where captured every 330 ms on a Zeiss LSM LIVE DUO confocal system in two channels defined by bandpass filters for 495-555 nm (green) and LP650 nm (Red) light. The resulting timelapse movies where subsequently analysed by the integrated Zeiss LSM DUO software. The total and cytoplasmic (digitonin-extracted) cathepsin activities were measured in digitonin-treated samples using zFR-AFC (Enzyme System Products) probe as described in the art.

For data set [6], the system named is NPDA fibroblasts. Kind of data set: Lysosomal area of confocal cross sections, NPDA fibroblasts. The data set is classed as cell-based, human. To be noted: NPDA fibroblasts, 24 h, 300 nM rHsp70 or W90F, 150 nM rASM or combination. The source says: Immunodetection and microscopy. Primary antibodies used included mouse monoclonal antibodies against Hsp70 (2H9; kindly provided by Boris Margulis, Russian Academy of Sciences, St. Petersburg, Russia), glyceraldehyde-3-phosphate dehydrogenase (GAPDH; Biogenesis), BMP (6C4), lysosomal integral membrane protein-1 (H5C6; developed by J. Thomas August and James E. K. Hildreth and obtained from the Developmental Studies Hybridoma Bank developed under the auspices of the NICHD and maintained by The University of Iowa, Department of Biological Sciences, Iowa City, USA). Proteins separated by 10% SDS-PAGE and transferred to a nitrocellulose membrane were detected by using indicated primary antibodies, appropriate peroxidase-conjugated secondary antibodies from Dako, ECL Western blotting reagents (Amersham), and Luminescent Image Reader (LAS-1000Plus, Fujifilm). For immunocytochemistry Alexa […] or Alexa Fluor®-488-conjugated secondary antibodies were used. Lysotracker Red® was used for live visualization of the lysosomal compartment. Fluorescence images were taken using a Zeiss Axiovert 100M laser scanning microscope. Lysotracker quantification and timelapse movies for lysosomal integrity were done on a Zeiss LSM LIVE DUO system.

Data set [7] concerns BMP. Nature of the data set: BIAcore surface plasmon resonance with immobilized BMP-containing LUVs. The data set is classed as binding. The note with it: pH 4.5. The protocol: (§1) For preparation of LUVs a lipid mixture consisting of 10 mol % sphingomyelin, 50 mol % phosphatidylcholine, 20 mol % cholesterol and 20 mol % BMP dissolved in organic solvents, was dried under a stream of argon and rehydrated in Tris/HCl buffer (pH 7.4) (Kolzer et al., 2004). The mixture was freeze-thawed nine times in liquid nitrogen and then in an incubator at 37° C. After ultrasound bath for 15 min the mixture was passed 21 times through a polycarbonate membrane with a pore diameter of 100 nm. Surface plasmon resonance measurements were performed using a BIAcore 2000 system at 25° C. LUVs (total lipid concentration 0.1 mM) were immobilized on the surface of a L1 sensor chip (BIAcore) in PBS (loading buffer). The running buffer used was sodium acetate buffer (50 mM, pH 4.5). As a control, acid sphingomyelinase (0.2 μM, 60 μl in running buffer) was injected directly on the liposome surface. Response units between 4100 RU-5250RU were obtained. The protein of interest was injected in running buffer at a flow rate of 20 μl/min at the concentrations indicated. After injection a dissociation phase of 10 min was appended.
as §1, with “Surface Plasmon Resonance (BIAcore). For” for “For”, “7.4).” for “7.4) (Kolzer et al., 2004).”, “The protein of interest was injected in running buffer at a flow rate of 20 μl/min at the concentrations indicated. After injection a dissociation phase of 10 min was appended.” left out
A general note: SPR reads the build-up and loss of mass on a sensor chip optically.

Take `CNCCCN1c2ccccc2CCc2ccccc21` [desipramine]: in data set [1], the “lysosomal stress resistance upon photo-oxidation” value is “reverted the lysosomal stress resistance of Hsp70-MEFs to the level of WT-MEFs”. Further, the “permeabilization of lysosomes (leakage of lysosomal cathepsins into the cytosol)” value in data set [2] was “massive permeabilization of lysosomes”. In data set [3], the “desipramine-induced cell death and lysosomal leakage in Hsp70-MEFs as compared to WT-MEFs” value is listed as “significantly reduced”. The “viability (MTT reduction)” value in data set [3] (MEFs) is “reduced the viability of MEFs in a dose-dependent manner”.

B1: rASM: recombinant acid sphingomyelinase (protein, UniProt P17405 47-631, looked up)
Sphingomyelin …: LALSDSRVLWAPAEAHPLSPQGHPARLHRIVPRLRDVFGWGNLTCPICKGLFTAINLGLKKEPNVARVGSVAIKLCNLLKIAPPAVCQSIVHLFEDDMVEVWRRSVLSPSEACGLLLGSTCGHWDIFSSWNISLPTVPKPPPKPPSPPAPGAPVSRILFLTDLHWDHDYLEGTDPDCADPLCCRRGSGLPPASRPGAGYWGEYSKCDLPLRTLESLLSGLGPAGPFDMVYWTGDIPAHDVWHQTRQDQLRALTTVTALVRKFLGPVPVYPAVGNHESTPVNSFPPPFIEGNHSSRWLYEAMAKAWEPWLPAEALRTLRIGGFYALSPYPGLRLISLNMNFCSRENFWLLINSTDPAGQLQWLVGELQAAEDRGDKVHIIGHIPPGHCLKSWSWNYYRIVARYENTLAAQFFGHTHVDEFEVFYDEETLSRPLAVAFLAPSATTYIGLNPGYRVYQIDGNYSGSSHVVLDHETYILNLTQANIPGAIPHWQLLYRARETYGLPNTLPTAWHNLVYRMRGDMQLFQTFWFLYHKGHPPSEPCGTPCRLATLCAQLSARADSPALCRHLMPDGSLPEAQSLWPRPLFC
For the molecule B1, the ASM activity entry in data set [4] is listed as “increased ASM activity”. Further, the lysosomal stability result in data set [5] is listed as “ability to stabilize the lysosomes”. The “lysosomal area / volume of the lysosomal compartment” value in data set [6] was “normalize the volume of the dramatically enlarged lysosomal compartment”. Also, the “affinity for BMP compared to that of Hsp70” value in data set [7] is on record as “half”.
